Tests used:
southern crabgrass [1] = test: Test Example 5: herbicidal effect by foliage application, plastic box (Table 20, symbol F); type: in vivo, southern crabgrass (Digitaria ciliaris); settings: 320 g/ha
In short: (§1)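 Plants were sown into sterilized diluvial soil under about 1.5 cm cover and kept in a greenhouse at 25° C. to 30° C. Fourteen days on, foliage received an even spray of the diluted emulsion. Herbicidal or crop effect was judged three weeks afterwards.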

velvetleaf [2] = test: Test Example 4: herbicidal effect by soil treatment (Table 19, symbol M); type: in vivo, velvetleaf (Abutilon theophrasti); settings: amount of applied herbicide 320 g/ha
From the text: (§2) [Test Example 4] Herbicidal Effect Test by Soil Treatment
(§3) Sterilized diluvial soil was placed in a plastic box having a length of 21 cm, a width of 13 cm, and a depth of 7 cm. The seeds of each of southern crabgrass, green foxtail, barnyard grass, wild oat, blackgrass, Italian ryegrass, windgrass, velvetleaf, redroot pigweed, lambsquarters, chickweed, false cleavers, persian speedwell, corn, soybean, rice, wheat, beet, and rapeseed were sowed in a spot-like manner and covered with the soil having a thickness of about 1.5 cm. Subsequently, the emulsion agent of the compound of the present invention prepared according to Formulation Example 2 was diluted with water so as to achieve a predetermined herbicide amount, and the diluted emulsion agent was uniformly applied to the surface of the soil with a small-sized spray. The plastic box was placed in a greenhouse at 25° C. to 30° C. for growth of the plants. Three weeks after the herbicide application, the effect of the herbicide on each plant was evaluated according to the criteria of Test Example 1.

barnyard grass [3] = test: Test Example 4: herbicidal effect by soil treatment (Table 19, symbol H); type: in vivo, barnyard grass (Echinochloa crus-galli); settings: amount of applied herbicide 320 g/ha
From the text: as §2, §3

lambsquarters [4] = test: Test Example 5: herbicidal effect by foliage application, plastic box (Table 20, symbol O); type: in vivo, lambsquarters (Chenopodium album); settings: 320 g/ha
From the text: (§4) [Test Example 5] Herbicidal Effect Test by Foliage Application
as §3, with “Thereafter, the plants were grown in a greenhouse at 25° C. to 30° C. After 14-day growth of the plants,” for “Subsequently,”, “a foliage part” for “the surface of the soil”, “spray.” for “spray. The plastic box was placed in a greenhouse at 25° C. to 30° C. for growth of the plants.”

barnyard grass [5] = test: Test Example 3: herbicidal effect by foliage application, Wagner pot (Table 18, symbol H); type: in vivo, barnyard grass (Echinochloa crus-galli); settings: amount of applied herbicide 320 g/ha
In short: (§5)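 Plants were sown in alluvial soil held under 0.1–0.5 cm standing water and grown 14 days in a greenhouse at 25–30 °C. An emulsifiable formulation, water-diluted to the set dose, was then sprayed onto the foliage, and effects were scored three weeks later using previously defined criteria.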

green foxtail [6] = test: Test Example 4: herbicidal effect by soil treatment (Table 19, symbol G); type: in vivo, green foxtail (Setaria viridis); settings: amount of applied herbicide 320 g/ha
From the text: as §2, §3

lambsquarters [7] = test: Test Example 4: herbicidal effect by soil treatment (Table 19, symbol O); type: in vivo, lambsquarters (Chenopodium album); settings: amount of applied herbicide 320 g/ha
From the text: as §2, §3

southern crabgrass [8] = test: Test Example 4: herbicidal effect by soil treatment (Table 19, symbol F); type: in vivo, southern crabgrass (Digitaria ciliaris); settings: amount of applied herbicide 320 g/ha
From the text: as §2, §3

barnyard grass [9] = test: Test Example 5: herbicidal effect by foliage application, plastic box (Table 20, symbol H); type: in vivo, barnyard grass (Echinochloa crus-galli); settings: 320 g/ha
From the text: as §4
as §3, with “Thereafter, the plants were grown in a greenhouse at 25° C. to 30° C. After 14-day growth of the plants,” for “Subsequently,”, “a foliage part” for “the surface of the soil”, “spray.” for “spray. The plastic box was placed in a greenhouse at 25° C. to 30° C. for growth of the plants.”

redroot pigweed [10] = test: Test Example 5: herbicidal effect by foliage application, plastic box (Table 20, symbol N); type: in vivo, redroot pigweed (Amaranthus retroflexus); settings: 320 g/ha
From the text: as §4
as §3, with “Thereafter, the plants were grown in a greenhouse at 25° C. to 30° C. After 14-day growth of the plants,” for “Subsequently,”, “a foliage part” for “the surface of the soil”, “spray.” for “spray. The plastic box was placed in a greenhouse at 25° C. to 30° C. for growth of the plants.”

velvetleaf [11] = test: Test Example 5: herbicidal effect by foliage application, plastic box (Table 20, symbol M); type: in vivo, velvetleaf (Abutilon theophrasti); settings: 320 g/ha
From the text: as §4
as §3, with “Thereafter, the plants were grown in a greenhouse at 25° C. to 30° C. After 14-day growth of the plants,” for “Subsequently,”, “a foliage part” for “the surface of the soil”, “spray.” for “spray. The plastic box was placed in a greenhouse at 25° C. to 30° C. for growth of the plants.”

green foxtail [12] = test: Test Example 5: herbicidal effect by foliage application, plastic box (Table 20, symbol G); type: in vivo, green foxtail (Setaria viridis); settings: 320 g/ha
In short: as §1

Chinese sprangletop = test: Test Example 3: herbicidal effect by foliage application, Wagner pot (Table 18, symbol D); type: in vivo, chinese sprangletop (Leptochloa chinensis); settings: amount of applied herbicide 320 g/ha
Experimental: [Test Example 3] Herbicidal Effect Test by Foliage Application After alluvial soil was placed into 1/10000 are of Wagner pot, water was poured and mixed to form a submerged condition having a water depth of 0.1 cm to 0.5 cm. Seeds of barnyard grass, Chinese sprangletop, rice flat sedge, and rice were sowed and the pot was placed in a greenhouse at 25° C. to 30° C. for growth of the plants. After 14-day growth of the plants, the emulsion agent of the compound of the present invention prepared according to Formulation Example 2 was diluted with water so as to achieve a predetermined herbicide amount, and the diluted emulsion agent was uniformly applied to a foliage part with a small-sized spray. Three weeks after the herbicide application, the effect of the herbicide on each plant was evaluated according to the criteria of Test Example 1.

redroot pigweed [13] = test: Test Example 4: herbicidal effect by soil treatment (Table 19, symbol N); type: in vivo, redroot pigweed (Amaranthus retroflexus); settings: amount of applied herbicide 320 g/ha
From the text: as §2, §3

rice flat sedge = test: Test Example 3: herbicidal effect by foliage application, Wagner pot (Table 18, symbol E); type: in vivo, rice flat sedge (Cyperus iria); settings: amount of applied herbicide 320 g/ha
In short: as §5

[14] = foliage application, three weeks after application
[15] = foliage application after 14-day growth, evaluated three weeks after application

## COCCOc1ccc(-c2sc3ccc(F)cc3c2-c2c(O)c(N)nn(C)c2=O)cc1 [2-456]
Southern crabgrass [1]; [14]
  F: southern crabgrass, herbicidal effect grade: 0 (Herbicidal rate of 5% or less (almost no effect))
Velvetleaf [2]
  herbicidal effect, M: velvetleaf: 0 (Herbicidal rate of 5% or less (almost no effect))
Barnyard grass [3]
  herbicidal effect, H: barnyard grass: 0 (Herbicidal rate of 5% or less (almost no effect))
Lambsquarters [4]; [14]
  O: lambsquarters, herbicidal effect grade: 3 (Herbicidal rate of 40% or more and less than 70%)
Barnyard grass [5]
  herbicidal effect on H: barnyard grass: 3 (Herbicidal rate of 40% or more and less than 70%)
Green foxtail [6]
  herbicidal effect, G: green foxtail: 0 (Herbicidal rate of 5% or less (almost no effect))
Lambsquarters [7]
  herbicidal effect, O: lambsquarters: 3 (Herbicidal rate of 40% or more and less than 70%)
Southern crabgrass [8]
  herbicidal effect, F: southern crabgrass: 0 (Herbicidal rate of 5% or less (almost no effect))
Barnyard grass [9]; [14]
  H: barnyard grass, herbicidal effect grade: 2 (Herbicidal rate of 20% or more and less than 40%)
Redroot pigweed [10]; [14]
  N: redroot pigweed, herbicidal effect grade: 4 (Herbicidal rate of 70% or more and less than 90%)
Velvetleaf [11]; [14]
  M: velvetleaf, herbicidal effect grade: 3 (Herbicidal rate of 40% or more and less than 70%)
Green foxtail [12]; [14]
  G: green foxtail, herbicidal effect grade: 1 (Herbicidal rate of 5% or more and less than 20%)
Chinese sprangletop
  herbicidal effect on D: Chinese sprangletop: 0 (Herbicidal rate of 5% or less (almost no effect))
Redroot pigweed [13]
  herbicidal effect, N: redroot pigweed: 5 (Herbicidal rate of 90% or more (almost completely withered))
Rice flat sedge
  herbicidal effect on E: rice flat sedge: 0 (Herbicidal rate of 5% or less (almost no effect))

## Cc1ccc2c(-c3c(O)c(C)nn(C)c3=O)c(-c3ccc(OC(F)(F)F)cc3)sc2c1 [3-168]
Southern crabgrass [1]; [15]
  herbicidal effect on F: southern crabgrass (evaluation grade 0-5): 0 (Herbicidal rate of 5% or less (almost no effect))
Velvetleaf [2]
  Herbicidal effect by soil treatment, M: velvetleaf: 0 (Herbicidal rate of 5% or less (almost no effect))
Barnyard grass [3]
  Herbicidal effect by soil treatment, H: barnyard grass: 0 (Herbicidal rate of 5% or less (almost no effect))
Lambsquarters [4]; [15]
  herbicidal effect on O: lambsquarters (evaluation grade 0-5): 3 (Herbicidal rate of 40% or more and less than 70%)
Green foxtail [6]
  Herbicidal effect by soil treatment, G: green foxtail: 0 (Herbicidal rate of 5% or less (almost no effect))
Lambsquarters [7]
  Herbicidal effect by soil treatment, O: lambsquarters: 0 (Herbicidal rate of 5% or less (almost no effect))
Southern crabgrass [8]
  Herbicidal effect by soil treatment, F: southern crabgrass: 0 (Herbicidal rate of 5% or less (almost no effect))
Barnyard grass [9]; [15]
  herbicidal effect on H: barnyard grass (evaluation grade 0-5): 0 (Herbicidal rate of 5% or less (almost no effect))
Redroot pigweed [10]; [15]
  herbicidal effect on N: redroot pigweed (evaluation grade 0-5): 2 (Herbicidal rate of 20% or more and less than 40%)
Velvetleaf [11]; [15]
  herbicidal effect on M: velvetleaf (evaluation grade 0-5): 0 (Herbicidal rate of 5% or less (almost no effect))
Green foxtail [12]; [15]
  herbicidal effect on G: green foxtail (evaluation grade 0-5): 0 (Herbicidal rate of 5% or less (almost no effect))
Redroot pigweed [13]
  Herbicidal effect by soil treatment, N: redroot pigweed: 3 (Herbicidal rate of 40% or more and less than 70%)

Source: patent US20230085307A1, “PYRIDAZINONE COMPOUND AND HERBICIDE” (NISSAN CHEMICAL CORPORATION, priority 2019, published 2023)
